How the values were obtained:
[1] = molecular target: 5-hydroxytryptamine receptor 7 (Homo sapiens, UniProt P34969)
Substance-P receptor = Substance-P receptor (Homo sapiens, UniProt P25103)
[2] = molecular target: Delta-type opioid receptor (Homo sapiens, UniProt P41143)
[3] = molecular target: Muscarinic acetylcholine receptor M2 (Homo sapiens, UniProt P08172)
[4] = molecular target: Beta-1 adrenergic receptor (Homo sapiens, UniProt P08588)
[5] = molecular target: Corticotropin-releasing factor receptor 2 (Homo sapiens) (UniProt Q13324)
Mu-type opioid receptor = Mu-type opioid receptor (Homo sapiens, UniProt P35372)
[6] = molecular target: Gastrin/cholecystokinin type B receptor (Homo sapiens, UniProt P32239)
[7] = molecular target: Muscarinic acetylcholine receptor M5 (Homo sapiens, UniProt P08912)
[8] = molecular target: Alpha-2A adrenergic receptor (Homo sapiens, UniProt P08913)
[9] = molecular target: 5-hydroxytryptamine receptor 6 (Homo sapiens, UniProt P50406)
Adenosine receptor A2a = Adenosine receptor A2a (Homo sapiens, UniProt P29274)
[10] = molecular target: Muscarinic acetylcholine receptor M3 (Homo sapiens, UniProt P20309)
[11] = molecular target: Beta-2 adrenergic receptor (Homo sapiens, UniProt P07550)
[12] = molecular target: Kappa-type opioid receptor (Homo sapiens, UniProt P41145)
[13] = molecular target: Alpha-2B adrenergic receptor (Homo sapiens, UniProt P18089)
Adenosine receptor A3 = Adenosine receptor A3 (Homo sapiens, UniProt P0DMS8)
[14] = molecular target: Sodium-dependent dopamine transporter (Homo sapiens, UniProt Q01959)
[15] = molecular target: Muscarinic acetylcholine receptor M4 (Homo sapiens, UniProt P08173)
[16] = molecular target: Muscarinic acetylcholine receptor M1 (Homo sapiens, UniProt P11229)
[17] = molecular target: Sodium-dependent noradrenaline transporter (Homo sapiens, UniProt P23975)
Adenosine receptor A1 = Adenosine receptor A1 (Homo sapiens, UniProt P30542)
Substance-K receptor = Substance-K receptor (Homo sapiens, UniProt P21452)
[18] = molecular target: 5-hydroxytryptamine receptor 3A (Homo sapiens, UniProt P46098)
Cannabinoid receptor 1 = Cannabinoid receptor 1 (Homo sapiens, UniProt P21554)
[19] = molecular target: Alpha-2C adrenergic receptor (Homo sapiens, UniProt P18825)
Neuromedin-K receptor = Neuromedin-K receptor (Homo sapiens, UniProt P29371)

Chain of Beta-2 adrenergic receptor (P07550 whole entry): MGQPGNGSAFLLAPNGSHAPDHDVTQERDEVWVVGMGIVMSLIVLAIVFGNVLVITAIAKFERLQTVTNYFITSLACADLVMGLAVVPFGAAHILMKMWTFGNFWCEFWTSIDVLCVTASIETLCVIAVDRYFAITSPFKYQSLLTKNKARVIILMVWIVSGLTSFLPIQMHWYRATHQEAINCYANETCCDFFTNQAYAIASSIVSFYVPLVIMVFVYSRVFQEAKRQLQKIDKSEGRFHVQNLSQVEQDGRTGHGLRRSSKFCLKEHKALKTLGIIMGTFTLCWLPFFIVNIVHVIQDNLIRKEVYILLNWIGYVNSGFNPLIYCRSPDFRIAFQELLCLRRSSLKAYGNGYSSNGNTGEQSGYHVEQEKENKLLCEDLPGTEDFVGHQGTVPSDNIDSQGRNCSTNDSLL
Chain of Substance-P receptor (P25103 whole entry): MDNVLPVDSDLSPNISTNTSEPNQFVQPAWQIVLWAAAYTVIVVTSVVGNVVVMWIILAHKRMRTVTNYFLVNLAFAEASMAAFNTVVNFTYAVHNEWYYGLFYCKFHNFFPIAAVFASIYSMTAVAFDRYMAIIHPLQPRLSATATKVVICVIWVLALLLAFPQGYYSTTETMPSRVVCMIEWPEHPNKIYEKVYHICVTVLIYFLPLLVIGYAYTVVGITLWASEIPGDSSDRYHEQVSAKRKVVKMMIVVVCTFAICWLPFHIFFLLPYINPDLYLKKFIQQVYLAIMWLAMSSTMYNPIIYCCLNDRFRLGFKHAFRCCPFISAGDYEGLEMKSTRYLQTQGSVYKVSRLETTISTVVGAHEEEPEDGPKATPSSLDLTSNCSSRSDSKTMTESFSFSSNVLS
Chain of Adenosine receptor A1 (P30542 whole entry): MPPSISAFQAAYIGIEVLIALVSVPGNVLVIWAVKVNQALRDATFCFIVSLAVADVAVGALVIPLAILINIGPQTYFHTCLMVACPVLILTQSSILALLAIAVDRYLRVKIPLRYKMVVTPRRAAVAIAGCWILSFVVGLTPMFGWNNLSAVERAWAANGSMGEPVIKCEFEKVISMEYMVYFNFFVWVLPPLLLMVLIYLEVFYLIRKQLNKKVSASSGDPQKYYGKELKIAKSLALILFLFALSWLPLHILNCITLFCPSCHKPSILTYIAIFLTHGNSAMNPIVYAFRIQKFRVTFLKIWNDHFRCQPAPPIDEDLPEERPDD
Chain of Muscarinic acetylcholine receptor M1 (P11229 whole entry): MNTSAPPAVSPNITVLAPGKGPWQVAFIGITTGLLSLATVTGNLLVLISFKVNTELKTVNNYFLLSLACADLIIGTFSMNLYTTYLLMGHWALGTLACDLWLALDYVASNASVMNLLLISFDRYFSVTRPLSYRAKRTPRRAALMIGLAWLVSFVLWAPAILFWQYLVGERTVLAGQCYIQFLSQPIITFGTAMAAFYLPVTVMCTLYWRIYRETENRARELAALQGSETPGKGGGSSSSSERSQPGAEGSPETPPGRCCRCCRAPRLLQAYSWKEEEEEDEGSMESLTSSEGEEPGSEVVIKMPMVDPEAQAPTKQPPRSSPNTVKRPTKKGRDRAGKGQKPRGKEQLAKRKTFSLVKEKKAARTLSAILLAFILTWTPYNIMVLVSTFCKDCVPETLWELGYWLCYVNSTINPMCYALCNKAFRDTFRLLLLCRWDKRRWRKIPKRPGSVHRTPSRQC
Chain of Alpha-2B adrenergic receptor (P18089 whole entry): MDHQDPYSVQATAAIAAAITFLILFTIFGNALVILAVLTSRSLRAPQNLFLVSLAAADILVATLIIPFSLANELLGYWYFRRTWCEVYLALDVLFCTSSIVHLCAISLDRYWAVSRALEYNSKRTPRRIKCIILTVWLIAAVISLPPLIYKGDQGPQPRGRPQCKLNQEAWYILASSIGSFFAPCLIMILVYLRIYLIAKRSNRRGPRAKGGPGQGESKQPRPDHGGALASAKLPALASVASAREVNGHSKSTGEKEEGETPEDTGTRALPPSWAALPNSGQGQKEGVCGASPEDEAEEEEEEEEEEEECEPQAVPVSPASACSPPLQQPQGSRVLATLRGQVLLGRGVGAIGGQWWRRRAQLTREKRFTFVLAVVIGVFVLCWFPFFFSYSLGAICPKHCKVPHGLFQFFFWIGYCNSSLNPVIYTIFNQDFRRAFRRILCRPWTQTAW
Chain of Kappa-type opioid receptor (P41145 whole entry): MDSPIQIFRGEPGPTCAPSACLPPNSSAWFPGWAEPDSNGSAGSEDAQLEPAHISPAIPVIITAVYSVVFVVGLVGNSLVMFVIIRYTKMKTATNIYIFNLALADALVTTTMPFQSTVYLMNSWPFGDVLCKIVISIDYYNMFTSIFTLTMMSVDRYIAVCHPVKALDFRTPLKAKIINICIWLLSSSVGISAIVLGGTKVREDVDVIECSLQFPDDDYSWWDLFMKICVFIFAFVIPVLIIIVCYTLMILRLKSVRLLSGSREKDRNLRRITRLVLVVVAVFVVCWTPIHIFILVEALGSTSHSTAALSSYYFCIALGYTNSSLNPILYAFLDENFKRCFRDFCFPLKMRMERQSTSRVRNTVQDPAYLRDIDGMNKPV
Chain of Sodium-dependent noradrenaline transporter (P23975 whole entry): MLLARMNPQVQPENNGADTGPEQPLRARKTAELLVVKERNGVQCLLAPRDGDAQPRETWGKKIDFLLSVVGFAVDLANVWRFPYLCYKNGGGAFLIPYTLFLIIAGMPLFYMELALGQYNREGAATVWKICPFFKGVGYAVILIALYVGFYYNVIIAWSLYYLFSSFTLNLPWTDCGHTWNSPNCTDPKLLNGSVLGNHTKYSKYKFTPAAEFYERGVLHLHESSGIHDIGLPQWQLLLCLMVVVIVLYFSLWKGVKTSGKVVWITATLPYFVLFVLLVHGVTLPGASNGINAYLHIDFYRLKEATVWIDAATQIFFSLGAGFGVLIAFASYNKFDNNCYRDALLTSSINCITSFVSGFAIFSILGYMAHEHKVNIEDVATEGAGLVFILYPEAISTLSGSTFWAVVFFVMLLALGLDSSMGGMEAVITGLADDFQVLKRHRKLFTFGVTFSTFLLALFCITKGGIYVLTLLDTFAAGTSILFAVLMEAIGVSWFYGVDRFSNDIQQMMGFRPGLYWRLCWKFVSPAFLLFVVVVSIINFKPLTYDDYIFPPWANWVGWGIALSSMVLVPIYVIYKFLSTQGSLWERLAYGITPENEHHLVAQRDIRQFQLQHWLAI
Chain of Substance-K receptor (P21452 whole entry): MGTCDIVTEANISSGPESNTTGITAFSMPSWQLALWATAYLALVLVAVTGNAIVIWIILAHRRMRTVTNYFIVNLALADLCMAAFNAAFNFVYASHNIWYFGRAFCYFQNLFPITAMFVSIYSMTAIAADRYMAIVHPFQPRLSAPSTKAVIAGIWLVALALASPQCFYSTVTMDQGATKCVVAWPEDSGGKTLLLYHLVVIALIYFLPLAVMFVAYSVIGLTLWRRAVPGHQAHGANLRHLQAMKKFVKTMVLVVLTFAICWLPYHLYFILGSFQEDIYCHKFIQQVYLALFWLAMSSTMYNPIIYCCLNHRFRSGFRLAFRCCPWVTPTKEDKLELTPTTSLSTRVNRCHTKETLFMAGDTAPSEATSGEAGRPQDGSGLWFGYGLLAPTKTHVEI
Chain of Gastrin/cholecystokinin type B receptor (P32239 whole entry): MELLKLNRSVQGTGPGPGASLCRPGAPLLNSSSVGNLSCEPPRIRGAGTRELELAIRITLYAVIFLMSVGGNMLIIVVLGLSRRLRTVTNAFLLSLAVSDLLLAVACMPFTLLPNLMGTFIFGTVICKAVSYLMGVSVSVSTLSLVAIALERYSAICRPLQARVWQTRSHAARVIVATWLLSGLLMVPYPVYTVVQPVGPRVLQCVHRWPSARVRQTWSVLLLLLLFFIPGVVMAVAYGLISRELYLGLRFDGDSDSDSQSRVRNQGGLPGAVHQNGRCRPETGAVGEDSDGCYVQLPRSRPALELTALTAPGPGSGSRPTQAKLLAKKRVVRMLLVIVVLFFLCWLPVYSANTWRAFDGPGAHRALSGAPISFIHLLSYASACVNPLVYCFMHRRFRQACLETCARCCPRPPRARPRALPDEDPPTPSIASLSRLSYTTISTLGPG
Chain of Muscarinic acetylcholine receptor M4 (P08173 whole entry): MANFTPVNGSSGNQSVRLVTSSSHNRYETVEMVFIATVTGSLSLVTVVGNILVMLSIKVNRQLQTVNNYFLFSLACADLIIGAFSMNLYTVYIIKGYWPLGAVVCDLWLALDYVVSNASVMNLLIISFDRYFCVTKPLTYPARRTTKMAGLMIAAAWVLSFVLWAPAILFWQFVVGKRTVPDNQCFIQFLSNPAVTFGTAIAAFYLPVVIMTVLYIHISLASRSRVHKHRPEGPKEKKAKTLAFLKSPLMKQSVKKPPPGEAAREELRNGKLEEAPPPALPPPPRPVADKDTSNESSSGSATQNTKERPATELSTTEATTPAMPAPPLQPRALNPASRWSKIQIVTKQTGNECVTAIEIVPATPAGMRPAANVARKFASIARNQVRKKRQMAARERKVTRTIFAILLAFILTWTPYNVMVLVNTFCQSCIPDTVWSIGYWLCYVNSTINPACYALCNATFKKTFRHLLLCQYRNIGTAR
Chain of Corticotropin-releasing factor receptor 2 (Homo sapiens) (Q13324 whole entry, looked up): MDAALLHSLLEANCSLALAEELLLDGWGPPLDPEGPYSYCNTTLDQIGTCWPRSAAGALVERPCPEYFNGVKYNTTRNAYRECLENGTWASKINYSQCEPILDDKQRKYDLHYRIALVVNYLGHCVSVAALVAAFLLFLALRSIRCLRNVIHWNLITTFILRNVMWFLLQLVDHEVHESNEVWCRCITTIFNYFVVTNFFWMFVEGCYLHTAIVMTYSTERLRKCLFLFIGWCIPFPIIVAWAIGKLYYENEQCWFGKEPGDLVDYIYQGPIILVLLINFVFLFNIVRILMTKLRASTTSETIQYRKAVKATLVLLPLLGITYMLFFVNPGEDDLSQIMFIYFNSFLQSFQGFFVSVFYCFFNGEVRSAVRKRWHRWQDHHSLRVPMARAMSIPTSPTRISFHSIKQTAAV

COc1cc(C(C)=O)ccc1OCCCN1CCC(c2noc3cc(F)ccc23)CC1
Ki [1]: 0.112 µM
Ki (Substance-P receptor): > 10 µM
Ki [2]: > 10 µM
Ki [3]: 3.31 µM
Ki [4]: > 10 µM
Ki [5]: > 10 µM
Ki (Mu-type opioid receptor): > 10 µM
Ki [6]: 9.33 µM
Ki [7]: > 10 µM
Ki [8]: 0.162 µM
Ki [9]: 0.0631 µM
Ki (Adenosine receptor A2a): > 10 µM
Ki [10]: > 10 µM
Ki [11]: > 10 µM
Ki [12]: > 10 µM
Ki [13]: 0.162 µM
Ki (Adenosine receptor A3): > 10 µM
Ki [14]: 2.95 µM
Ki [15]: 8.32 µM
Ki [16]: 4.9 µM
Ki [17]: 1.48 µM
Ki (Adenosine receptor A1): > 10 µM
Ki (Substance-K receptor): > 10 µM
Ki [18]: > 10 µM
Ki (Cannabinoid receptor 1): > 10 µM
Ki [19]: 0.0162 µM
Ki (Neuromedin-K receptor): > 10 µM

Reference: BindingDB's records for doi:10.1016/S0893-133X(01)00285-8 (Novartis Pharma, 2001)
